Source: patent publication US10071086B2, “1H-pyrazolo[3,4-b]pyridines and therapeutic uses thereof” (Samumed, LLC, priority 2012, dated 2018)

These compounds were tested on Wnt pathway (assay: Wnt activity reporter assay (SP5 promoter-luciferase in SW480 cells)). Conditions: Homo sapiens, SP5 promoter firefly luciferase reporter, read-out: Wnt inhibition.
Assay type: cell-based
From the text: The above synthesized compounds were screened using the assay procedure for Wnt activity described below.
Reporter cell lines can be generated by stably transducing cells of cancer cell lines (e.g., colon cancer) with a lentiviral construct that include a wnt-responsive promoter driving expression of the firefly luciferase gene.
Lentiviral constructs can be made in which the SP5 promoter, a promoter having eight TCF/LEF binding sites derived from the SP5 promoter, is linked upstream of the firefly luciferase gene. The lentiviral constructs can also include a hygromycin resistance gene as a selectable marker. The SP5 promoter construct can be used to transduce SW480 cells, a colon cancer cell line having a mutated APC gene that generates a truncated APC protein, leading to de-regulated accumulation of β-catenin.
Cultured SW480 cells bearing a reporter construct can be distributed at approximately 10,000 cells per well into 96 well or 384 well plates. Compounds from a small molecule compound library can then be added to the wells in half-log dilutions using a ten micromolar top concentration. A series of control wells for each cell type receive only buffer and compound solvent. Twenty-four to forty hours after the addition of compound, reporter activity for luciferase can be assayed, for example, by addition of the BrightGlo luminescence reagent (Promega) and the Victor3 plate reader (Perkin Elmer). Readings can be normalized to DMSO only treated cells, and normalized activities can then be used in the IC50 calculations.
In the case of `CN(C)Cc1cncc(-c2cnc3[nH]nc(-c4nc5c(-c6cc(F)cc(N7CCOCC7)c6)cncc5[nH]4)c3c2)c1` [Compound 24, 1-(5-(3-(7-(3-Fluoro-5-morpholinophenyl)-3H-imidazo[4,5-c]pyridin-2-yl)-1H-pyrazolo[3,4-b]pyridin-5-yl)pyridin-3-yl)-N,N-dimethylmethanamine], the IC50 is reported as 21 nM. For `c1ccc(CNCc2cncc(-c3cnc4[nH]nc(-c5nc6c(-c7ccncc7)cncc6[nH]5)c4c3)c2)cc1` [Compound 209, N-Benzyl-1-(5-(3-(7-(pyridin-4-yl)-3H-imidazo[4,5-c]pyridin-2-yl)-1H-pyrazolo[3,4-b]pyridin-5-yl)pyridin-3-yl)methanamine], the IC50 was 9800 nM. Compound `CCC(=O)Nc1cncc(-c2cnc3[nH]nc(-c4nc5c(-c6cccs6)cncc5[nH]4)c3c2)c1` [Compound 440, N-(5-(3-(7-(Thiophen-2-yl)-3H-imidazo[4,5-c]pyridin-2-yl)-1H-pyrazolo[3,4-b]pyridin-5-yl)pyridin-3-yl)propionamide] has an IC50 of 4 nM. For `CCCC(=O)Nc1cncc(-c2cnc3[nH]nc(-c4nc5c(-c6ccccc6F)cncc5[nH]4)c3c2)c1` [Compound 158, N-(5-(3-(7-(2-Fluorophenyl)-3H-imidazo[4,5-c]pyridin-2-yl)-1H-pyrazolo[3,4-b]pyridin-5-yl)pyridin-3-yl)butyramide], the IC50 was 8 nM. Compound `CN(C)c1cncc(-c2cnc3[nH]nc(-c4nc5c(-c6ccsc6)cncc5[nH]4)c3c2)c1` [Compound 346, N,N-Dimethyl-5-(3-(7-(thiophen-3-yl)-3H-imidazo[4,5-c]pyridin-2-yl)-1H-pyrazolo[3,4-b]pyridin-5-yl)pyridin-3-amine] has an IC50 of 56 nM. For `O=C(Nc1cncc(-c2cnc3[nH]nc(-c4nc5c(-c6cccc(F)c6)cccc5[nH]4)c3c2)c1)C1CCCC1` [Compound 560, N-(5-(3-(4-(3-Fluorophenyl)-1H-benzo[d]imidazol-2-yl)-1H-pyrazolo[3,4-b]pyridin-5-yl)pyridin-3-yl)cyclopentanecarboxamide], the IC50 was 90 nM. With `CN(C)Cc1cncc(-c2cnc3[nH]nc(-c4nc5c(-c6cc(F)cc(CNS(C)(=O)=O)c6)cncc5[nH]4)c3c2)c1` [Compound 22, N-(3-(2-(5-(5-((Dimethylamino)methyl)pyridin-3-yl)-1H-pyrazolo[3,4-b]pyridin-3-yl)-3H-imidazo[4,5-c]pyridin-7-yl)-5-fluorobenzyl)methanesulfonamide] the IC50 was 32 nM. `CCNCc1cncc(-c2cnc3[nH]nc(-c4nc5c(N6CCN(C)CC6)cccc5[nH]4)c3c2)c1` [Compound 738, N-((5-(3-(4-(4-Methylpiperazin-1-yl)-1H-benzo[d]imidazol-2-yl)-1H-pyrazolo[3,4-b]pyridin-5-yl)pyridin-3-yl)methyl)ethanamine] showed an IC50 of 550 nM. Compound `Cc1ccncc1-c1cnc2[nH]nc(-c3nc4c(-c5ccncc5)cccc4[nH]3)c2c1` [Compound 637, 5-(4-Methylpyridin-3-yl)-3-(4-(pyridin-4-yl)-1H-benzo[d]imidazol-2-yl)-1H-pyrazolo[3,4-b]pyridine] has an IC50 of 110 nM. `CC(C)Nc1cncc(-c2cnc3[nH]nc(-c4nc5c(-c6ccncc6)cccc5[nH]4)c3c2)c1` [Compound 643, N-Isopropyl-5-(3-(4-(pyridin-4-yl)-1H-benzo[d]imidazol-2-yl)-1H-pyrazolo[3,4-b]pyridin-5-yl)pyridin-3-amine] was tested, and the IC50 was 30 nM. For `CN(C)Cc1cncc(-c2cnc3[nH]nc(-c4nc5c(-c6ccsc6)cncc5[nH]4)c3c2)c1` [Compound 352, N,N-Dimethyl-1-(5-(3-(7-(thiophen-3-yl)-3H-imidazo[4,5-c]pyridin-2-yl)-1H-pyrazolo[3,4-b]pyridin-5-yl)pyridin-3-yl)methanamine], the IC50 was 57 nM. `CN(C)Cc1cncc(-c2cnc3[nH]nc(-c4nc5c(-c6cccc(F)c6)cccc5[nH]4)c3c2)c1` [Compound 552, 1-(5-(3-(4-(3-Fluorophenyl)-1H-benzo[d]imidazol-2-yl)-1H-pyrazolo[3,4-b]pyridin-5-yl)pyridin-3-yl)-N,N-dimethylmethanamine] was tested, and the IC50 was 22 nM. For `O=C(Nc1cncc(-c2cnc3[nH]nc(-c4nc5c(-c6ccc(F)cc6)cccc5[nH]4)c3c2)c1)C1CC1` [Compound 581, N-(5-(3-(4-(4-Fluorophenyl)-1H-benzo[d]imidazol-2-yl)-1H-pyrazolo[3,4-b]pyridin-5-yl)pyridin-3-yl)cyclopropanecarboxamide], the IC50 was 48 nM. `CCNC(=O)c1cncc2[nH]c(-c3n[nH]c4ncc(-c5cccnc5)cc34)nc12` [Compound 8, N-Ethyl-2-(5-(pyridin-3-yl)-1H-pyrazolo[3,4-b]pyridin-3-yl)-3H-imidazo[4,5-c]pyridine-7-carboxamide] gave an IC50 of 8250 nM. Work on `O=C(Nc1cncc(-c2cnc3[nH]nc(-c4nc5c(N6CCCCC6)cncc5[nH]4)c3c2)c1)c1ccccc1` [Compound 246, N-(5-(3-(7-(Piperidin-1-yl)-3H-imidazo[4,5-c]pyridin-2-yl)-1H-pyrazolo[3,4-b]pyridin-5-yl)pyridin-3-yl)benzamide] yielded an IC50 of 1270 nM. In the case of `CCCC(=O)Nc1cncc(-c2cnc3[nH]nc(-c4nc5c(-c6ccoc6)cncc5[nH]4)c3c2)c1` [Compound 382, N-(5-(3-(7-(Furan-3-yl)-3H-imidazo[4,5-c]pyridin-2-yl)-1H-pyrazolo[3,4-b]pyridin-5-yl)pyridin-3-yl)butyramide], the IC50 is reported as 3 nM. Work on `Fc1ccc(-c2cccc3[nH]c(-c4n[nH]c5ncc(-c6cncc(CNCC7CCCC7)c6)cc45)nc23)cc1` [Compound 586, 1-Cyclopentyl-N-((5-(3-(4-(4-fluorophenyl)-1H-benzo[d]imidazol-2-yl)-1H-pyrazolo[3,4-b]pyridin-5-yl)pyridin-3-yl)methyl)methanamine] yielded an IC50 of 420 nM. For `CC(C)(C)C(=O)Nc1cncc(-c2cnc3[nH]nc(-c4nc5c(-c6ccccc6F)cccc5[nH]4)c3c2)c1` [Compound 594, N-(5-(3-(4-(2-Fluorophenyl)-1H-benzo[d]imidazol-2-yl)-1H-pyrazolo[3,4-b]pyridin-5-yl)pyridin-3-yl)pivalamide], the IC50 was 120 nM. `CCCCC(=O)Nc1cncc(-c2cnc3[nH]nc(-c4nc5c(-c6cccc(F)c6)cccc5[nH]4)c3c2)c1` [Compound 557, N-(5-(3-(4-(3-Fluorophenyl)-1H-benzo[d]imidazol-2-yl)-1H-pyrazolo[3,4-b]pyridin-5-yl)pyridin-3-yl)pentanamide] gave an IC50 of 53 nM. For `O=C(Nc1cncc(-c2cnc3[nH]nc(-c4nc5c(-c6ccc(F)cc6)cccc5[nH]4)c3c2)c1)c1ccccc1` [Compound 573, N-(5-(3-(4-(4-Fluorophenyl)-1H-benzo[d]imidazol-2-yl)-1H-pyrazolo[3,4-b]pyridin-5-yl)pyridin-3-yl)benzamide], the IC50 was 82 nM. For `CC1CCN(c2cc(F)cc(-c3cncc4[nH]c(-c5n[nH]c6ncc(-c7cccnc7)cc56)nc34)c2)CC1` [Compound 19, 3-(7-(3-Fluoro-5-(4-methylpiperidin-1-yl)phenyl)-3H-imidazo[4,5-c]pyridin-2-yl)-5-(pyridin-3-yl)-1H-pyrazolo[3,4-b]pyridine], the IC50 was 499 nM. With `CN(C)Cc1cncc(-c2cnc3[nH]nc(-c4nc5c(-c6cncc(C(F)(F)F)c6)cncc5[nH]4)c3c2)c1` [Compound 25, N,N-Dimethyl-1-(5-(3-(7-(5-(trifluoromethyl)pyridin-3-yl)-3H-imidazo[4,5-c]pyridin-2-yl)-1H-pyrazolo[3,4-b]pyridin-5-yl)pyridin-3-yl)methanamine] the IC50 was 10000 nM. `c1cc(N2CCCCC2)c2nc(-c3n[nH]c4ncc(-c5cncc(CNCC6CCCC6)c5)cc34)[nH]c2c1` [Compound 704, 1-Cyclopentyl-N-((5-(3-(4-(piperidin-1-yl)-1H-benzo[d]imidazol-2-yl)-1H-pyrazolo[3,4-b]pyridin-5-yl)pyridin-3-yl)methyl)methanamine] gave an IC50 of 810 nM. Work on `Fc1ccccc1-c1cccc2[nH]c(-c3n[nH]c4ncc(-c5cncc(CN6CCCC6)c5)cc34)nc12` [Compound 599, 3-(4-(2-Fluorophenyl)-1H-benzo[d]imidazol-2-yl)-5-(5-(pyrrolidin-1-ylmethyl)pyridin-3-yl)-1H-pyrazolo[3,4-b]pyridine] yielded an IC50 of 220 nM. `CC(C)(C)CC(=O)Nc1cncc(-c2cnc3[nH]nc(-c4nc5c(-c6ccncc6)cccc5[nH]4)c3c2)c1` [Compound 647, 3,3-Dimethyl-N-(5-(3-(4-(pyridin-4-yl)-1H-benzo[d]imidazol-2-yl)-1H-pyrazolo[3,4-b]pyridin-5-yl)pyridin-3-yl)butanamide] gave an IC50 of 1520 nM. Work on `Cc1ccncc1-c1cnc2[nH]nc(-c3nc4c(-c5ccncc5)cncc4[nH]3)c2c1` [Compound 192, 5-(4-Methylpyridin-3-yl)-3-(7-(pyridin-4-yl)-3H-imidazo[4,5-c]pyridin-2-yl)-1H-pyrazolo[3,4-b]pyridine] yielded an IC50 of 1050 nM. `O=C(Nc1cncc(-c2cnc3[nH]nc(-c4nc5c(-c6ccccn6)cncc5[nH]4)c3c2)c1)C1CCC1` [Compound 229, N-(5-(3-(7-(Pyridin-2-yl)-3H-imidazo[4,5-c]pyridin-2-yl)-1H-pyrazolo[3,4-b]pyridin-5-yl)pyridin-3-yl)cyclobutanecarboxamide] showed an IC50 of 12 nM. With `c1cc(-c2cncc3[nH]c(-c4n[nH]c5ncc(-c6cncc(CN7CCCCC7)c6)cc45)nc23)cs1` [Compound 354, 5-(5-(Piperidin-1-ylmethyl)pyridin-3-yl)-3-(7-(thiophen-3-yl)-3H-imidazo[4,5-c]pyridin-2-yl)-1H-pyrazolo[3,4-b]pyridine] the IC50 was 293 nM.
